Data published in PubChem BioAssay AID1508612.

assay: passive permeability, PAMPA, ADME assay (AID 1508612); details: pH 7.4, 30.0 min, 50.0 µM

Structure (SMILES) | Papp [×10⁻⁶ cm/s]
CC1=C(C(=O)Nc2nncs2)C(c2ccccc2Br)N=C(Nc2nc3ccccc3o2)N1 (stereo not drawn) | 128
O=C(Nc1nc2cc(C(F)(F)F)cc(NC3CC3)n2n1)c1cccnc1 | 197
OCC(O)CCO/N=C1/C(c2c(O)[nH]c3ccccc23)=Nc2ccccc21 (stereo not drawn) | 961
c1c[nH]c(C2CCN(c3ncc(-c4ccc5c(c4)OCCCO5)s3)CC2)n1 | > 1000
COc1cc(-c2nc(Nc3ccc(F)c(F)c3)c3ccccc3n2)ccn1 | 22.5
O=C(NCCCc1ccccc1)C1CCN(c2nc(-c3ccc(Br)cc3)cs2)CC1 | 18
Fc1cc(Nc2nc(-c3ccncc3)nc3ccccc23)ccc1-c1cccc(OC(F)F)c1 | 30.1
CC1=Nc2cc(C(=O)NC3CCCC3)ccc2Sc2ccc(C)cc21 | > 1000
COc1ccccc1C(=O)Nc1ccccc1C(=O)Nc1cccc(S(=O)(=O)C(F)(F)F)c1 | 7.6
Cc1ccc(-c2csc(N3CCC(C(N)=O)CC3)n2)cc1 | 711
Cc1ccc2oc3c(c(=O)c2c1)C(c1cccc(O)c1)N(CCCN1CCOCC1)C3=O (stereo not drawn) | 103
COc1ccccc1Nc1ccnc(N2CCN(C(=O)c3ccc(F)cc3)CC2)n1 | > 1000
O=C(Cc1ccc(Cl)c(Cl)c1)Nc1ccc(S(=O)(=O)Nc2cccc(O)c2)cc1 | 15.6
CCN(CC)S(=O)(=O)c1ccc(N2CCOCC2)c(NC(=O)c2[nH]c(C)c(C(C)=O)c2C)c1 | > 1000
O=C1Nc2cccc(Cl)c2/C1=C\c1cc(Cl)c(O)c(Cl)c1 | 93.9
CCCCC(C)/C=C(C)/C=C(\C)C(=O)NC1=CC(O)(/C=C/C=C/C=C/C(=O)NC2=C(O)CCC2=O)C2OC2C1=O (stereo not drawn) | 955
CC(C)c1ccccc1-c1ncc(F)c(NCc2ccc(-c3ccn[nH]3)cc2)n1 | > 1000
O=C(Nc1ccc(-c2ccccc2)cc1)[C@H](Cc1ccc(O[S+](=O)([O-])c2cccc3cnccc23)cc1)N[S+](=O)([O-])c1cccc2cnccc12 | 18.5
CCc1ccccc1Nc1ncnc2c1cnn2-c1ccc(Cl)cc1 | 253
c1ccc2c(Nc3ccc4nc[nH]c4c3)nc(-c3ccncc3)nc2c1 | 16.7
CN1C(=O)c2ccccc2[S@](=O)c2ccc(C(=O)NCCN3CCCC3)cc21 | 94.2
CCN1C(=O)c2ccccc2S(=O)c2ccc(NC(=O)Cc3ccc(F)cc3)cc21 (stereo not drawn) | > 1000
CCCOC(c1cc2nccc(C(=O)O)c2[nH]1)c1ccccc1Cl (stereo not drawn) | 12.9
Cn1c(=O)c2cc(C(=O)NCCCN3CCN(c4ccccc4F)CC3)sc2c2ccccc21 | > 1000
CC(C)c1ccccc1-c1ncc(F)c(NCC2CCN(c3cnccn3)C2)n1 (stereo not drawn) | > 1000
Brc1ccc(-c2csc(N3CCC(c4nn[nH]n4)CC3)n2)cc1 | 141
Cc1ccc(NS(=O)(=O)c2cc3c(cc2N[C@H](C)CO)NC(=O)CC3)cc1C | 273

Structure (SMILES) | Papp [×10⁻⁶ cm/s]
O=C(c1cc2ccccc2[nH]1)N1CCc2c(n(Cc3cccnc3)n(CCc3ccccc3)c2=O)C1 | 381
Cc1ccc(S(=O)(=O)Nc2cnccc2C(=O)Nc2nc(-c3nc4ccccc4s3)cs2)cc1 | 740
CCOC(=O)c1ccc(-n2cnc3cc(C(=O)N4CCCCC4)ccc32)cc1 | > 1000
O=C(c1cccs1)c1nonc1C(=O)c1cccs1 | 806
NCC(=O)Nc1cccc(-c2nn3c(=O)cc(N4CCNCC4)nc3s2)c1 | < 1
CC(=O)N1CCC(NC(=O)c2nc(-c3ccccc3)cc3[nH]ccc23)CC1 | 288
CCn1ncc(NC(=O)Cn2ncc3cc(-c4cccc(OC)c4)ccc32)n1 | > 1000
COCCn1ccc2c(C3=CCOCC3)nc(-c3cccc(NC(C)=O)c3)cc21 | 464
CC1=C[C@@H](CN2C(=O)C(C)=C(C)C2=O)[C@H](C(C)C)C[C@H]1Cc1nc2c(C)cccc2[nH]1 | 585
NC(=O)C1CCN(c2nc(-c3ccc(N)cc3)cs2)CC1 | 87.1
COc1ccc(-c2csc(NC(=O)c3ccncc3NS(=O)(=O)c3ccc(C)cc3)n2)cc1 | > 1000
Cc1ccc(-n2nc3c(=O)n(CCCC(=O)NCc4ccc(F)cc4)nc(C)c3c2C)cc1 | 842
Cc1cc(NS(=O)(=O)c2ccc3c(c2)CCC(=O)N3)ccc1F | 412
CC[C@@H](CO)NC(=O)[C@@H]1C=C2c3cccc4c3c(cn4C)C[C@H]2N(C)C1 | 396
COc1ccc(CN(C2CCCCC2C)S(=O)(=O)c2ccc(S(=O)(=O)N(C)C)cc2)cc1OC (stereo not drawn) | 18.8
Fc1ccc(Nc2nc(-c3ccncc3F)nc3ccccc23)cc1F | 325
Cc1cccc(CNc2ccc(S(=O)(=O)Nc3nccs3)cc2)c1O | 7.9
CSc1nnc2c3ccccc3n(CCc3ccccc3)c2n1 | > 1000
O=C1CCCC2=C1C(c1ncccc1Br)N=C(Nc1nc3ccccc3o1)N2 (stereo not drawn) | 371
O=C(NC1CCCc2c1[nH]c1c(Cl)cccc21)c1ccc2c(c1)OCO2 (stereo not drawn) | 51
Cc1cc(-c2nnc3n2CCCCC3)c(C)n1-c1ccc(Br)cc1 | > 1000
Fc1ccc(CNc2ncnc3onc(-c4ccc(F)cc4)c23)cc1 | > 1000
FC(F)(F)c1ccc(N2CCN(C(=S)Nc3ccccn3)CC2)cc1 | 815
Cc1cccc(C)c1C(=O)Nc1cccc([S+](=O)([O-])N(C)C)c1 | 355
COC(=O)c1ccc2nc(NC3=NC(c4[nH]ncc4Cl)C4=C(CCCC4=O)N3)oc2c1 (stereo not drawn) | 578
CN(C)[C@@H]1CCN(c2cccc(Nc3nn4c(=O)c5ccccc5nc4s3)c2)C1 | 125
